From patent US20190070170A1, “METHOD OF S[…]-1” (Macau University of Science and Technology, priority 2017, published 2019)

What was measured:
p-cPLA2 = p-cPLA2 protein expression in LPS-activated rat peritoneal macrophages (western blotting); format: cell-based; conditions: SIN or DEX 1 h, LPS 24 h
Method: (§1) Sprague-Dawley (SD) rats from the University of Hong Kong were housed in cages with free access to food and water. Peritoneal macrophages of SD rats were isolated as described in Liu J. et al., Pharmacological research 2016, 111:303-315. Briefly, untreated rats were sacrificed and after laparotomy, about 50 ml cold sterile Hank's balanced salt solution (HBSS) was used to lavage the peritoneal cavity at twice, and then the peritoneal lavage fluid was collected and centrifuged at 1500 rpm for 10 min. The cell pellets was suspended at a density 1.5×10^6 cells/ml in pre-hearted DMEM medium with 10% heat-inactivated FBS, penicillin G (100 units/ml), streptomycin ([…]), and L-glutamine (2 mM), followed by seeding in 6-well plates at a density of 4.5×10^6 cells and incubation for 2 h. Then the medium were discarded to remove the non-adherent cells. The adherent cells were further washed for two times with pre-heated DMEM medium to remove floating cells. Next, cells were pre-treated with various concentration of SIN for 1 h, followed by stimulation with LPS (1 μg/ml).
(§2) Whole-cell and nuclear proteins were obtained using RIPA lysis buffer (CST, Boston, Mass., USA) and Nuclear and Cytoplasmic Extraction Reagents kit from Thermo Scientific (Asheville, N.C., USA), respectively. […] The levels of protein expression were measured using Odyssey v3.0 software from Li-COR (Lincoln, Nebr., USA).

COX-1 = COX-1 protein expression in LPS-activated rat peritoneal macrophages (western blotting); format: cell-based; conditions: SIN or DEX 1 h, LPS 24 h
Method: as §1, §2

COX-2 [1] = test: COX-2 protein expression in LPS-activated rat peritoneal macrophages (western blotting); format: cell-based; conditions: SIN or DEX 1 h, LPS 24 h
Method: as §1, §2

COX-2 [2] = test: COX-2 mRNA level in LPS-activated rat peritoneal macrophages (qRT-PCR); format: cell-based; conditions: SIN 1 h, LPS 12 h
Method: Peritoneal macrophages were cultured in 6-well plates and pre-treated with the indicated concentration of SIN for 1 h, followed by LPS stimulation for another 12 h. RNA was isolated from rat peritoneal macrophages using the Nucleospin RNA kit from Macherey-Nagel (Duren, Germany) according to the manufacturer's instructions. RNA concentration derived from each sample was assessed by NanoDrop UV Spectrophotometer from Thermo Scientific (Asheville, N.C., USA). RNA (1 μg) was reverse transcripted using the transcriptor universal cDNA master reagents from Roche Applied Science (Mannheim, Germany). Gene expression quantification was performed by a high-productivity real-time quantitative PCR ViiA™ 7 machine using SYBR Green reagents from Roche Applied Science (Mannheim, Germany) according a standard protocol recommended by the manufacturer and the cycling parameters were as followed: uracil removal incubation (50° C., 2 min), polymerase activation (95° C., 10 min), 40 cycles of denaturation (95° C., 15 s) and annealing/extension (60° C., 30 s) and a melt curve stage (95° C., 15 s, 60° C., 1 min and 95° C., 15 s).
Rat primers used in the research are listed as follows:
• The levels of gene expression were quantitated using the 2(−Delta Delta C(T)) method. […]

TXA2 = TXA2 level in culture supernatants of LPS-activated rat peritoneal macrophages (ELISA); format: cell-based; conditions: LPS-stimulated rat peritoneal macrophages, culture supernatant
Method: as §1
(§3) RAW264.7 cells and rat peritoneal macrophages were seeded in a 96-well plate at density of 1.4×10^4 and 1.5×10^5 cells, respectively. […] The optical density was measured at 570 nm against a reference wavelength of 650 nm using a microplate UV/VIS spectrophotometer (Tecan, Mannedorf, Switzerland). […]

iNOS = iNOS protein level in LPS-stimulated RAW264.7 cells (immunoblotting); format: cell-based, mouse; conditions: pretreatment 1 h, LPS 100 ng/ml 18 h
Method: RAW264.7 and A549 cell lines were obtained from American Type Culture Collection (ATCC, Manassas, Va., USA) and maintained in DMEM (RAW264.7) or 1640 (A549) medium containing 10% FBS (Gibco-BRL, Grand Island, N.Y., USA) and antibiotics at 37° C. in a humidified atmosphere containing 5% CO2. RAW264.7 cells were plated in 6-well plates at a density of 4×10^5 cells and incubated for 24 h, then the cells were pretreated with different concentrations of SIN for 1 h before stimulating with LPS (100 ng/ml). A549 cells were seeded in 6-well plates at a density of 1×10^5 cells and incubated for 24 h, followed by pretreatment with SIN. A549 cells were then stimulated by IL-1β (1 ng/ml).
Whole-cell and nuclear proteins were obtained using RIPA lysis buffer (CST, Boston, Mass., USA) and Nuclear and Cytoplasmic Extraction Reagents kit from Thermo Scientific (Asheville, N.C., USA), respectively. For immunoblotting, proteins from whole-cell, cytoplasm, nuclear, and microsomal fractions were separated on SDS-PAGE, then transferred onto a nitrocellulose membrane from GE Healthcare Life Sciences (Buckinghamshire, UK), and incubated with 5% skimmed milk at room temperature for 1 h. […] The levels of protein expression were measured using Odyssey v3.0 software from Li-COR (Lincoln, Nebr., USA).

TNF-α = TNF-α level in LPS-stimulated rat peritoneal macrophages (ELISA); format: cell-based; conditions: pretreatment 1 h, LPS 1 μg/ml 24 h
Method: as §1, §3

Which results are given for `COC1=C[C@@H]2[C@@H]3Cc4ccc(OC)c(O)c4[C@]2(CCN3C)CC1=O` [SIN, sinomenine]?
p-cPLA2 protein expression (p-cPLA2): did not suppress; COX-1 protein expression (COX-1): did not suppress; COX-2 protein expression (COX-2 [1]): did not suppress; gene level of COX-2 (mRNA) (COX-2 [2]): did not suppress; level of TXA2 (TXA2): no significant influence; iNOS expression (iNOS): significantly inhibited; TNF-α production (TNF-α): significantly inhibited
